Measured values published in ChEMBL document CHEMBL6078679, “Structure-Guided Discovery of Subtype Selective SIRT6 Inhibitors with a β-Carboline Skeleton for the Treatment of Breast Cancer” (J Med Chem, 2024).

Tests used:
[1] = molecular target: T1, NAD-dependent protein deacetylase sirtuin-2 (Homo sapiens, UniProt Q8IXJ6); assay: Inhibition of SIRT2 (unknown origin) deacetylation activity using Boc-Lys(Ac)-AMC as substrate incubated for 2 hrs by BioTek microplate reader analysis
T1 sequence (Q8IXJ6 whole entry): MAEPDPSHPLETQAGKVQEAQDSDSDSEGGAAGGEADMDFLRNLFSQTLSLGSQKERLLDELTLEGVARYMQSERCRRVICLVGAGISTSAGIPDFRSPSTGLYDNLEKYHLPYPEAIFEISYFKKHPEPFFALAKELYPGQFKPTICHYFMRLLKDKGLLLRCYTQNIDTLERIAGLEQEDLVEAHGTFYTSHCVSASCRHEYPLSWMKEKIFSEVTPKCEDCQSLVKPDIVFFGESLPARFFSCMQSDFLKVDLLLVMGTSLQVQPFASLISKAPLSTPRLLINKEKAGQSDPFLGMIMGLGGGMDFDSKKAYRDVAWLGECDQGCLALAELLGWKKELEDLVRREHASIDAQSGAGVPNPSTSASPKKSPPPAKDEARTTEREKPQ

[2] = molecular target: T2, NAD-dependent protein deacetylase sirtuin-7 (Homo sapiens, UniProt Q9NRC8); assay: Inhibition of SIRT7 (unknown origin) deacetylation activity using Boc-Lys(Ac)-AMC as substrate incubated for 2 hrs by BioTek microplate reader analysis
T2 sequence (Q9NRC8 whole entry): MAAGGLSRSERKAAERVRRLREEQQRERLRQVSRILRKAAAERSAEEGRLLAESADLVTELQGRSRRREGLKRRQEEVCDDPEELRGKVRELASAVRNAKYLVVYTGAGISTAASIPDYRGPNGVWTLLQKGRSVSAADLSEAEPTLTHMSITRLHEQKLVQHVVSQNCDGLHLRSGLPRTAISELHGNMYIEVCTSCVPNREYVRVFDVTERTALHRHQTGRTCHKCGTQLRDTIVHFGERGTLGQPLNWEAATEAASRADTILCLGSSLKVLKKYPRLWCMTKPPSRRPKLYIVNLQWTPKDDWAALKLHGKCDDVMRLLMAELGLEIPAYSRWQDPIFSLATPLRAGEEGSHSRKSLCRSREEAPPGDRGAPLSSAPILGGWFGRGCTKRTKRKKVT

[3] = molecular target: T3, NAD-dependent protein lipoamidase sirtuin-4, mitochondrial (Homo sapiens, UniProt Q9Y6E7); assay: Inhibition of SIRT4 (unknown origin) deacetylation activity using Boc-Lys(Ac)-AMC as substrate incubated for 2 hrs by BioTek microplate reader analysis
T3 sequence (Q9Y6E7 whole entry): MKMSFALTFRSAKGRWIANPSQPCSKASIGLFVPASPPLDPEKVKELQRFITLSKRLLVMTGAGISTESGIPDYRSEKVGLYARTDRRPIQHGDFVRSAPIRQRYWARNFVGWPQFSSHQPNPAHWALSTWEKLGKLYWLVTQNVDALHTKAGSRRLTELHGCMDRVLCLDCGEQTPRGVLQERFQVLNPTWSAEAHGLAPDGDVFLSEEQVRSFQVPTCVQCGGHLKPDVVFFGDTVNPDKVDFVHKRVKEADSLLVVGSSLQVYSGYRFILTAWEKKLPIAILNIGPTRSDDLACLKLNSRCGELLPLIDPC

[4] = molecular target: NAD-dependent protein deacylase sirtuin-5, mitochondrial (Homo sapiens, UniProt Q9NXA8); assay: Inhibition of SIRT5 (unknown origin) deacetylation activity using Boc-Lys(Ac)-AMC as substrate incubated for 2 hrs by BioTek microplate reader analysis
[5] = molecular target: T4, NAD-dependent protein deacetylase sirtuin-1 (Homo sapiens, UniProt Q96EB6); assay: Inhibition of SIRT1 (unknown origin) deacetylation activity using Boc-Lys(Ac)-AMC as substrate incubated for 2 hrs by BioTek microplate reader analysis
T4 sequence (Q96EB6 whole entry): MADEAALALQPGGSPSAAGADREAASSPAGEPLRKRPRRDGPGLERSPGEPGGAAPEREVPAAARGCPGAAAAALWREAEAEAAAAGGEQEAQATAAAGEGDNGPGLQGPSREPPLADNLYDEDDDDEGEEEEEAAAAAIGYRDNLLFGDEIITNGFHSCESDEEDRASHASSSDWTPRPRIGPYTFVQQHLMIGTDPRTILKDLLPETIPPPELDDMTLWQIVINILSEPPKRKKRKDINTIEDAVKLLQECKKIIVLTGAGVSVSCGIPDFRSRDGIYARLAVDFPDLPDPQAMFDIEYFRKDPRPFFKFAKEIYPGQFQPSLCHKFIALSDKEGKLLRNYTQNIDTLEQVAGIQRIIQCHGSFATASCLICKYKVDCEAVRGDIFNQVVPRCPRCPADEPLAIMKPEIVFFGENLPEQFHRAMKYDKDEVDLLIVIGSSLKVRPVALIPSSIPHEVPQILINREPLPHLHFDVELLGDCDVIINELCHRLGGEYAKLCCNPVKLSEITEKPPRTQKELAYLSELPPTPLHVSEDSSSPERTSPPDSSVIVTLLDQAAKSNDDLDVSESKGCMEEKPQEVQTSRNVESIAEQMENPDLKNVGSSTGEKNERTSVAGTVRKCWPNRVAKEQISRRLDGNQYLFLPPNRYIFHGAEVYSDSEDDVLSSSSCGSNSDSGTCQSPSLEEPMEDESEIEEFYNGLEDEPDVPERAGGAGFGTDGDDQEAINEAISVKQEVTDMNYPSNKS

[6] = molecular target: T5, NAD-dependent protein deacetylase sirtuin-3, mitochondrial (Homo sapiens, UniProt Q9NTG7); assay: Inhibition of full length N-terminal his-tagged SIRT3 (unknown origin) deacetylation activity expressed in Escherichia coli BL21 (DE3) using RHKK-Ac-AMC as substrate incubated for 2 hrs by FDL analysis relative to control
T5 sequence (Q9NTG7 whole entry): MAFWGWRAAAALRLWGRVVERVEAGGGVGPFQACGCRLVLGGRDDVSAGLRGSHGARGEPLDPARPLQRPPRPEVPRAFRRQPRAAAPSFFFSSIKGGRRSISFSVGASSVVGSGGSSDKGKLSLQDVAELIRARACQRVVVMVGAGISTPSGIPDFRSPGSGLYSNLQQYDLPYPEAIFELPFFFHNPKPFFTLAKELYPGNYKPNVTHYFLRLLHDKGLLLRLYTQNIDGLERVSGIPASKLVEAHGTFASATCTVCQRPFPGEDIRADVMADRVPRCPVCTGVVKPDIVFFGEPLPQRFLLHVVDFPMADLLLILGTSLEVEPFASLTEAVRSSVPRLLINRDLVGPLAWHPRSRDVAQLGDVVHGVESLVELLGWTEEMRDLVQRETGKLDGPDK

Sequence of NAD-dependent protein deacylase sirtuin-5, mitochondrial (Q9NXA8 whole entry): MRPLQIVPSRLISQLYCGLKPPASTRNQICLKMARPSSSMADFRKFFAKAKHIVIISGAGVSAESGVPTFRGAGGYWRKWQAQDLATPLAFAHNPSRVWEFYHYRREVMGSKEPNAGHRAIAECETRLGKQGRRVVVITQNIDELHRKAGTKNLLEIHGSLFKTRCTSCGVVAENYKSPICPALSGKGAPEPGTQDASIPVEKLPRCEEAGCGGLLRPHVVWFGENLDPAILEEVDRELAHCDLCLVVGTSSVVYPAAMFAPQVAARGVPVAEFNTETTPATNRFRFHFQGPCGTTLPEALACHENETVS

Work on `N#Cc1ccc(Cn2c3ccc(Cl)cc3c3cc(C(=O)NCc4ccccn4)ncc32)cc1` yielded an IC50 [1] of 157 µM, an IC50 [2] greater than 500 µM and an IC50 [3] of 274 µM. For the same compound, the IC50 [4] was greater than 500 µM and the IC50 [5] was 312 µM.
Work on `COC(=O)c1cc2c(cn1)[nH]c1ccccc12` [BETA-CCM] yielded an IC50 [6] greater than 100 µM.
`CC(/C=C/C(=O)NO)=C\[C@@H](C)C(=O)c1ccc(N(C)C)cc1` [TRICHOSTATIN] was tested, and the IC50 [6] was 7.88 µM.
